Data published in the NIST ThermoML archive (doi:10.1016/j.fluid.2011.07.007).
Values joined by “and” are separate entries in the source; they are usually repeats but may differ in a detail not shown here. Equal entries are not always repeated. Structures can show the parent of a compound that is named as a salt. ± gives the expanded uncertainty stated by the source.

Conditions: Transpiration method

CC(C)(C)OC(=O)CC(=O)OC(C)(C)C [bis(1,1-dimethylethyl) propanedioate]
Liquid
Conditions	vapor or sublimation pressure [kPa]
293.7 K	0.00787 ± 0.00064
295.7 K	0.00952 ± 0.00075
298.6 K	0.0122 ± 0.001
301.7 K	0.0159 ± 0.0012
303.6 K	0.0186 ± 0.0014
306.6 K	0.023 ± 0.0017
308.6 K	0.0274 ± 0.0022
310.7 K	0.0337 ± 0.0027
312.6 K	0.0399 ± 0.0031
315.6 K	0.0494 ± 0.0036
317.6 K	0.055 ± 0.0042
319.6 K	0.0663 ± 0.0049
321.6 K	0.0714 ± 0.0053
323.6 K	0.0845 ± 0.0065
324.7 K	0.0934 ± 0.0071
327.6 K	0.1125 ± 0.0089
333.5 K	0.1828 ± 0.013
336.5 K	0.2131 ± 0.016
339.5 K	0.2702 ± 0.02
342.5 K	0.333 ± 0.025
345.5 K	0.3886 ± 0.028

CC(C)OC(=O)CCC(=O)OC(C)C [bis(1-methylethyl) butanedioate]
Liquid
Conditions	vapor or sublimation pressure [kPa]
304.4 K	0.0113 ± 0.0009
307.4 K	0.0147 ± 0.0011
310.4 K	0.0186 ± 0.0014
313.4 K	0.0236 ± 0.0018
316.4 K	0.0301 ± 0.0023
318.5 K	0.0352 ± 0.0027
321.4 K	0.0448 ± 0.0034
323.4 K	0.0527 ± 0.004
326.4 K	0.0651 ± 0.0049
328.5 K	0.0749 ± 0.0058
331.4 K	0.096 ± 0.0073
333.3 K	0.1092 ± 0.0081

CC(C)OC(=O)CCCC(=O)OC(C)C [bis(1-methylethyl) pentanedioate]
Liquid
Conditions	vapor or sublimation pressure [kPa]
294.5 K	0.00137 ± 0.00011
297.5 K	0.00175 ± 0.00014
300.5 K	0.00246 ± 0.0002
303.4 K	0.00328 ± 0.00026
306.4 K	0.00433 ± 0.00035
309.5 K	0.00594 ± 0.00045
312.5 K	0.00714 ± 0.00055
315.5 K	0.00958 ± 0.00076
318.6 K	0.0126 ± 0.001
322.7 K	0.017 ± 0.0013
324.4 K	0.0199 ± 0.0015
327.4 K	0.0251 ± 0.0019

CC(C)(C)OC(=O)CCCCC(=O)OC(C)(C)C [di-tert-butyl adipate]
Liquid
Conditions	vapor or sublimation pressure [kPa]
322.6 K	0.00711 ± 0.00055
323.4 K	0.00757 ± 0.00058
326.2 K	0.00926 ± 0.0007
329 K	0.0113 ± 0.00086
331.8 K	0.01428 ± 0.0011
336 K	0.01907 ± 0.0014
338 K	0.02216 ± 0.0017
341 K	0.02859 ± 0.0021
344 K	0.03272 ± 0.0024
346.9 K	0.04033 ± 0.0031
349.9 K	0.0511 ± 0.0038
352.9 K	0.06145 ± 0.0046
355.9 K	0.07647 ± 0.0057
358.9 K	0.09287 ± 0.0069
361.9 K	0.1117 ± 0.0079
362.4 K	0.1137 ± 0.0081
362.5 K	0.1144 ± 0.0082
366.3 K	0.1453 ± 0.011

CC(C)(C)OC(=O)CCCC(=O)OC(C)(C)C [di-tert-butyl glutarate]
Liquid
Conditions	vapor or sublimation pressure [kPa]
295.2 K	0.00104 ± 9e-05
297.2 K	0.0013 ± 0.00011
299.2 K	0.00157 ± 0.00012
301.2 K	0.00187 ± 0.00015
303.2 K	0.00231 ± 0.00018
305.2 K	0.00276 ± 0.00022
307.2 K	0.00334 ± 0.00026
309.2 K	0.00393 ± 0.00031
311.2 K	0.00471 ± 0.00038
313.2 K	0.00581 ± 0.00045
315.2 K	0.00674 ± 0.00052
317.2 K	0.00801 ± 0.00061
319.2 K	0.00909 ± 0.00068
321.2 K	0.0104 ± 0.0008
323.2 K	0.0123 ± 0.001
325.2 K	0.0152 ± 0.0012

CC(C)(C)OC(=O)C(=O)OC(C)(C)C [di-tert-butyl oxalate]
Conditions	vapor or sublimation pressure [kPa]
293.8 K, Crystal	0.00391 ± 0.00038
296.7 K, Crystal	0.0058 ± 0.00049
299.7 K, Crystal	0.00793 ± 0.00065
302.7 K, Crystal	0.0109 ± 0.0009
305.7 K, Crystal	0.0154 ± 0.0013
308.3 K, Crystal	0.0201 ± 0.0019
308.8 K, Crystal	0.0217 ± 0.002
311.2 K, Crystal	0.0276 ± 0.0024
311.7 K, Crystal	0.0293 ± 0.0025
314.2 K, Crystal	0.0384 ± 0.0032
314.7 K, Crystal	0.0405 ± 0.0033
317.6 K, Crystal	0.0574 ± 0.0047
320.7 K, Crystal	0.0769 ± 0.006
323.2 K, Crystal	0.0956 ± 0.0076
323.6 K, Crystal	0.1 ± 0.0079
326.6 K, Crystal	0.1313 ± 0.01
329.6 K, Crystal	0.1637 ± 0.013
333.2 K, Crystal	0.2253 ± 0.023
333.7 K, Crystal	0.2468 ± 0.024
338.2 K, Crystal	0.3739 ± 0.028
338.6 K, Crystal	0.3689 ± 0.028
345.6 K, Liquid	0.4066 ± 0.03
346.7 K, Liquid	0.4358 ± 0.033
347.6 K, Liquid	0.4703 ± 0.034
348.6 K, Liquid	0.4816 ± 0.035
351.5 K, Liquid	0.5565 ± 0.041
351.7 K, Liquid	0.5963 ± 0.044
352.5 K, Liquid	0.6078 ± 0.044
354.5 K, Liquid	0.6715 ± 0.049
356.5 K, Liquid	0.7609 ± 0.056
357.5 K, Liquid	0.799 ± 0.059
360.7 K, Liquid	0.9613 ± 0.074
361.2 K, Liquid	1 ± 0.076
363.7 K, Liquid	1.053 ± 0.076
366.2 K, Liquid	1.252 ± 0.093
371.2 K, Liquid	1.638 ± 0.12

CC(C)(C)OC(=O)CCC(=O)OC(C)(C)C [di-tert-butyl succinate]
Liquid
Conditions	vapor or sublimation pressure
323.2 K	0.0331 ± 0.0026 kPa
326.2 K	0.0419 ± 0.0032 kPa
331.2 K	0.0592 ± 0.0044 kPa
333.2 K	0.0697 ± 0.0054 kPa
335.2 K	0.0817 ± 0.006 kPa
337.2 K	0.0885 ± 0.0066 kPa
339.2 K	0.1043 ± 0.0079 kPa
341.2 K	0.1198 ± 0.0089 kPa
343.2 K	0.1351 ± 0.01 kPa
345.2 K	0.1498 ± 0.011 kPa and 0.1534 ± 0.011 kPa
347.2 K	0.1716 ± 0.013 kPa
349.2 K	0.2009 ± 0.015 kPa
351.2 K	0.2187 ± 0.016 kPa
353.2 K	0.2523 ± 0.019 kPa
355.2 K	0.2842 ± 0.021 kPa

CC(C)OC(=O)CC(=O)OC(C)C [diisopropyl malonate]
Liquid
Conditions	vapor or sublimation pressure [kPa]
289.3 K	0.00784 ± 0.00064
292.5 K	0.0105 ± 0.0008
295.4 K	0.0139 ± 0.0011
298.4 K	0.0172 ± 0.0013
301.4 K	0.0228 ± 0.0018
304.4 K	0.0293 ± 0.0023
307.4 K	0.0375 ± 0.0029
310.4 K	0.0471 ± 0.0036
313.4 K	0.0581 ± 0.0044
315.4 K	0.0688 ± 0.0053
316.5 K	0.0757 ± 0.0057
318.5 K	0.0862 ± 0.0066
319.4 K	0.0965 ± 0.0072
321.5 K	0.1068 ± 0.0078
322.5 K	0.1138 ± 0.009
323.5 K	0.1282 ± 0.01
325.4 K	0.1468 ± 0.011

CC(C)OC(=O)C(=O)OC(C)C [diisopropyl oxalate]
Liquid
Conditions	vapor or sublimation pressure [kPa]
287.5 K	0.0149 ± 0.0012
290.4 K	0.0197 ± 0.0016
293.3 K	0.0254 ± 0.002
297.3 K	0.035 ± 0.0027
300.3 K	0.0452 ± 0.0035
303.3 K	0.0576 ± 0.0044
306.3 K	0.0712 ± 0.0054
308.3 K	0.0846 ± 0.0066
311.2 K	0.1081 ± 0.0082
313.3 K	0.1266 ± 0.0094
316.3 K	0.151 ± 0.011
318.4 K	0.1722 ± 0.013
318.5 K	0.1731 ± 0.013
321.2 K	0.2066 ± 0.015
322.4 K	0.2247 ± 0.018
323.6 K	0.2533 ± 0.019
326.4 K	0.2884 ± 0.021
330.5 K	0.3766 ± 0.028
